Results reported in US8022043B2, “Ceramide derivatives as modulators of immunity and autoimmunity” (Albert Einstein College of Medicine of Yeshiva University, priority 2004, dated 2011).

How the values were obtained:
Format in all cases: cell-based
[1] = tested on: iNKT cells; test: In vitro cytokine modulation, murine cell assay system; conditions: for IFNγ induction: DB03-3: in some murine strains; for in vitro activity at modulating cytokines: murine cell assay system
Excerpt: The term iNKT cells, as used herein, mean the specific subset of CD1d-dependent T cells that expresses the invariant TCRα chain rearrangement consisting of Vα14-Jα18 in mice, and Vα24-Jα18 in humans. These cells are uniformly reactive to α-galactosylceramides presented by CD1d. These cells are also referred to as “Type 1” NKT cells, and the distinction between the different types of NKT cells and the nomenclature relating to this are summarized in the publication by Godfrey et al., Nat Rev Immunol. 2004 March; 4(3):231-7. Methods for determining cytokine production by iNKT cells in response to CD1d-presented glycolipids for determination of strong or weak agonist activity are described in Yu K O A, Im J S, Molano A, Dutronc Y, Illarionov P A, Forestier C, Fujiwara N, Arias I, Miyake S, Yamamura T, Chang Y-T, Besra G S, Porcelli S A, Modulation of CD1d-restricted NKT cell responses using N-acyl variants of α-galactosylceramides, Proc. Nat. Acad. Sci. (USA), 102:3383-8 (2005), see also Godfrey D I et al., Nat Rev Immunol. 2004 March; 4(3):231-7.

[2] = tested on: NK T cells; test: NK T cell activation screens (Example, FIG. 5 and Table 1); conditions: see Example
Excerpt: Using these methods, we produced more than 60 novel amino substituted analogues of KRN7000. These were screened in a functional assay that assessed the ability of the compounds to activate NK T cell hybridomas in the presence of various types of cells expressing CD1d, or in the presence of recombinant CD1d proteins bound to the tissue culture plate surface (FIG. 5).

[3] = tested on: Bulk splenocytes from C57BL/6 mice; test: Splenocyte proliferation assay (3H-thymidine incorporation); conditions: concentration giving 50% maximal response in proliferation of splenocyte cultures, 3H-thymidine incorporation
Protocol: The results were obtained using a splenocyte proliferation assay according to the following procedure: Bulk splenocytes from C57BL/6 mice were plated at 300,000 per well in 96-well flat-bottom tissue culture plates with the indicated ceramide-like glycolipid diluted in complete medium to the concentrations shown. After 48 h at 37° C., the plate wells were pulsed with 20 microliters of medium containing 50 microCi/ml ^3H-thymidine and incubated for a further 18 h. Cell proliferation was estimated by harvesting pulsed cells onto 96-well filtermats and scintillation counting on a 1450 Microbeta Trilux instrument (Wallac/Perkin Elmer, Boston, Mass.).

[4] = tested on: Bulk splenocytes from C57BL/6 mice; test: Cytokine response of splenocyte cultures (IL-4 and IFNγ ELISA); conditions: 500 nM glycolipid, 48 hours; for Cytokine Response IFNγ / Cytokine Response IL-4: culture supernatant ELISA, ND = below the reliable level for detection
Protocol: The cytokine response reported in Table 1 and FIG. 5C was determined by the following procedure: Bulk splenocytes from C57BL/6 mice were plated at 300,000 per well in 96-well flat-bottom tissue culture plates with ceramide-like glycolipids diluted to a concentration of 500 nM in 200 microliters complete medium. After 48 h at 37° C., 150 microliters of supernatant was removed for cytokine measurements. Supernatant levels of IL-4, and IFNγ were measured by standard enzyme-linked immunosorbent assay (ELISA), using capture and biotinylated detection antibody pairs (clones 11B11/BVD6-24G2-biotin, and R4-6A2/XMG1.2-biotin, respectively, from BD Pharmingen, San Diego, Calif.). […] Standards for IL-4 and IFNγ were from Peprotech (Rocky Hill, N.J.).

Row | SMILES | IL-4 induction ([1]; in vitro) | IFNγ induction ([1]; in vitro) | in vitro activity at modulating cytokines [1] | IL-2 induction ([1]; in vitro) | effectiveness of compound [2] | EC50 [3] [nM] | IL-4/IFNγ ratio divided by this ratio for DB01-1 (value in parentheses) [4] | ratio IL-4/IFNγ [4] | Cytokine Response IFNγ [4] [ng/mL] | Cytokine Response IL-4 [4] [ng/mL]
1 | CCCCCCCC/C=C\CCCCCCCCCC(=O)N[C@@H](COC1OC(CO)C(O)C(O)C1O)[C@H](O)[C@H](O)CCCCCCCCCCCCCC (some centres unmarked) [DB03-3] | good inducer of L-4 | strong inducer of IFNγ | show in vitro activity | – | – | – | – | – | – | –
2 | CCCCCCCCCCCCCC[C@@H](O)[C@@H](O)[C@H](CO[C@H]1O[C@H](CO)[C@H](O)[C@H](O)[C@H]1O)N=[N+]=[N-] [DB03-7] | – | – | show in vitro activity | – | – | – | – | – | – | –
3 | CCCCC/C=C\C/C=C\CCCCCCCC(=O)N[C@@H](COC1OC(CO)C(O)C(O)C1O)[C@H](O)[C@H](O)CCCCCCCCCCCCCC (some centres unmarked) [DB03-10] | strong inducers of IL-4 | moderate inducers of IFNγ | show in vitro activity | weak inducers of IL-2 | – | – | – | – | – | –
4 | CCCCCCCCCCCCCCC(O)C(O)C(COC1OC(CO)C(O)C(O)C1O)NC(=O)CCCCC (centres unmarked) [YTC03-31] | – | – | – | – | Particularly effective | – | – | – | – | –
5 | CCCCCCCCCCCCCC[C@@H](O)[C@@H](O)[C@H](COC1OC(CO)C(O)C(O)C1O)NC(=O)Cc1ccc(OC)cc1 (some centres unmarked) [YTC03-33] | – | – | – | – | Particularly effective | – | – | – | – | –
6 | CCCCCCCCCCCCCCC(O)C(O)C(COC1OC(CO)C(O)C(O)C1O)NC(=O)CCCCCCCCCCC (centres unmarked) [YTC03-35] | – | – | – | – | Particularly effective | – | – | – | – | –
7 | CCCCCCCCCCCCCCC(O)C(O)C(COC1OC(CO)C(O)C(O)C1O)NC(=O)C=Cc1ccccc1 (centres unmarked) [YTCO3-42] | – | – | – | – | – | > 2500 | – | – | – | –
8 | CCCCCCCCCCCCCCC(O)C(O)C(COC1OC(CO)C(O)C(O)C1O)NC(=O)Cc1ccccc1OC (centres unmarked) [YTCO3-43] | – | – | – | – | – | 86.9 | 0.7 | 0.018 | 19.50 | 0.35
9 | CCCCCCCCCCCCCCC(O)C(O)C(COC1OC(CO)C(O)C(O)C1O)NC(=O)Cc1ccc2c(c1)OCO2 (centres unmarked) [YTCO3-44] | – | – | – | – | – | 57.1 | 3.7 | 0.097 | 14.19 | 1.38
10 | CCCCCCCCCCCCCCC(O)C(O)C(COC1OC(CO)C(O)C(O)C1O)NC(=O)Cc1ccccc1Cl (centres unmarked) [YTCO3-45] | – | – | – | – | – | 222 | 1.6 | 0.041 | 15.26 | 0.63
11 | CCCCCCCCCCCCCC[C@@H](O)[C@@H](O)[C@H](CO[C@H]1O[C@H](CO)[C@H](O)[C@H](O)[C@H]1O)NC(=O)C1(c2ccccc2)CCCC1 [YTCO3-46] | – | – | – | – | Particularly effective | 4.8 | 1.0 | 0.026 | 8.52 | 0.22
12 | CCCCCCCCCCCCCC[C@@H](O)[C@@H](O)[C@H](CO[C@H]1O[C@H](CO)[C@H](O)[C@H](O)[C@H]1O)NC(=O)Cc1ccc(Br)cc1 [YTCO3-47] | – | – | – | – | Particularly effective | 7.5 | 0.4 | 0.011 | 19.63 | 0.21
13 | CCCCCCCCCCCCCC[C@@H](O)[C@@H](O)[C@H](CO[C@H]1O[C@H](CO)[C@H](O)[C@H](O)[C@H]1O)NC(=O)C(OC)c1ccccc1 (some centres unmarked) [YTCO3-48] | – | – | – | – | – | 86.9 | 0.6 | 0.016 | 12.56 | 0.20
14 | CCCCCCCCCCCCCC[C@@H](O)[C@@H](O)[C@H](CO[C@H]1O[C@H](CO)[C@H](O)[C@H](O)[C@H]1O)NC(=O)Cc1c(F)cccc1Cl [YTCO3-49] | – | – | – | – | – | 57.1 | 1.1 | 0.028 | 4.57 | 0.13
15 | CCCCCCCCCCCCCC[C@@H](O)[C@@H](O)[C@H](CO[C@H]1O[C@H](CO)[C@H](O)[C@H](O)[C@H]1O)NC(=O)C(c1ccccc1)C1CCCC1 (some centres unmarked) [YTCO3-50] | – | – | – | – | Particularly effective | 5.4 | 0.3 | 0.007 | 9.47 | 0.07
16 | CCCCCCCCCCCCCC[C@@H](O)[C@@H](O)[C@H](CO[C@H]1O[C@H](CO)[C@H](O)[C@H](O)[C@H]1O)NC(=O)Cc1ccc(C)cc1 [YTCO3-51] | – | – | – | – | – | 63.8 | 0.2 | 0.006 | 9.03 | 0.05
17 | CCCCCCCCCCCCCC[C@@H](O)[C@@H](O)[C@H](CO[C@H]1O[C@H](CO)[C@H](O)[C@H](O)[C@H]1O)NC(=O)Cc1cccc(C)c1 [YTCO3-52] | – | – | – | – | – | 17 | 0.7 | 0.019 | 10.25 | 0.19
18 | CCCCCCCCCCCCCC[C@@H](O)[C@@H](O)[C@H](CO[C@H]1O[C@H](CO)[C@H](O)[C@H](O)[C@H]1O)NC(=O)c1ccc(OCCCCCCC)cc1 [YTCO3-53] | – | – | – | – | – | 38 | 1.2 | 0.030 | 0.67 | 0.02
19 | CCCCCCCCCCCCCC[C@@H](O)[C@@H](O)[C@H](CO[C@H]1O[C@H](CO)[C@H](O)[C@H](O)[C@H]1O)NC(=O)Cc1cc(OC)ccc1OC [YTCO3-54] | – | – | – | – | – | 17.2 | 0.4 | 0.011 | 10.39 | 0.11
20 | CCCCCCCCCCCCCC[C@@H](O)[C@@H](O)[C@H](CO[C@H]1O[C@H](CO)[C@H](O)[C@H](O)[C@H]1O)NC(=O)[C@H](Cc1ccccc1)NC(=O)OC(C)(C)C [YTCO3-57] | – | – | – | – | – | 2190 | – | – | – | –
21 | CCCCCCCCCCCCCC[C@@H](O)[C@@H](O)[C@H](CO[C@H]1O[C@H](CO)[C@H](O)[C@H](O)[C@H]1O)NC(=O)C(C)(c1ccccc1)c1ccccc1 [YTCO3-58] | – | – | – | – | – | 51.8 | 0.9 | 0.024 | 8.64 | 0.21
22 | CCCCCCCCCCCCCC[C@@H](O)[C@@H](O)[C@H](CO[C@H]1O[C@H](CO)[C@H](O)[C@H](O)[C@H]1O)NC(=O)C(CC)c1ccccc1 (some centres unmarked) [YTCO3-61] | – | – | – | – | – | 72.4 | 0.9 | 0.023 | 7.50 | 0.17
